# Measured values: ChEMBL document CHEMBL1129128, “Synthesis of divalent -D-mannopyranosylated clusters having enhanced binding affinities towards concanavalin A and pea lectins” (Bioorg Med Chem Lett, 1996)
# Assays:
# [1] = Inhibition of binding of pea lectins to yeast mannan by compound was measured using peroxidase-labeled lectin assay; parameters: species or system Saccharomyces cerevisiae
# [2] = Inhibition of binding of concanavalin A to yeast mannan by compound was measured using peroxidase-labeled lectin assay,; parameters: species or system Saccharomyces cerevisiae
# Saccharomyces cerevisiae [3] = experiment: Inhibition of binding of pea lectins to yeast mannan by compound was measured using peroxidase-labeled lectin assay, activity expressed relative to 2-Hydroxymethyl-6-methoxy-tetrahydro-pyran-3,4,5-triol
# Saccharomyces cerevisiae [4] = experiment: Inhibition of binding of concanavalin A to yeast mannan by compound was measured using peroxidase-labeled lectin assay, expressed relative to 2-Hydroxymethyl-6-methoxy-tetrahydro-pyran-3,4,5-triol
SMILES,IC50 [1] [µM],IC50 [2] [µM],Relative potency (Saccharomyces cerevisiae [3]),Relative potency (Saccharomyces cerevisiae [4])
C=CCO[C@H]1O[C@@H](CO)[C@@H](O)[C@H](O)[C@H]1O,940,261,4.1,3.5
CO[C@H]1O[C@H](CO)[C@@H](O)[C@H](O)[C@H]1O,3850,924,1,1
O=[N+]([O-])c1ccc(O[C@H]2O[C@H](CO)[C@@H](O)[C@H](O)[C@H]2O)cc1,> 1500,106,2.6,8.7

# Now those with a lower IC50 [1], led by results:
IC50 [1] [µM],IC50 [2] [µM],Relative potency (Saccharomyces cerevisiae [3]),Relative potency (Saccharomyces cerevisiae [4]),SMILES
575,36.8,6.7,25,O=C(CCCCC/N=C(\S)Nc1ccc(O[C@H]2O[C@@H](CO)[C@@H](O)[C@H](O)[C@H]2O)cc1)Nc1cc(NC(=O)CCCCC/N=C(\S)Nc2ccc(O[C@H]3O[C@@H](CO)[C@@H](O)[C@H](O)[C@H]3O)cc2)cc(C(=O)O)c1
185,30.5,20.8,30.3,O=C(O)c1cc(N/C(S)=N/CCSCCCO[C@H]2O[C@@H](CO)[C@@H](O)[C@H](O)[C@H]2O)cc(N/C(S)=N/CCSCCCO[C@H]2O[C@@H](CO)[C@@H](O)[C@H](O)[C@H]2O)c1
129,6.7,29.8,138,COC(=O)c1cc(N/C(S)=N/CCSCCCO[C@H]2O[C@@H](CO)[C@@H](O)[C@H](O)[C@H]2O)cc(N/C(S)=N/CCSCCCO[C@H]2O[C@@H](CO)[C@@H](O)[C@H](O)[C@H]2O)c1
